Measurements: US9783527B2, “Indazole ureas and method of use” (AbbVie Inc., priority 2014, dated 2017)

What follows are compounds tested against human Nav1.7 (Homo sapiens (Human), UniProt Q15858) (assay: FRET-based membrane potential assay, recombinant human sodium channel Nav1.7). Settings: HEK293 cells stably expressing recombinant human Nav1.7; depolarization with veratridine (EC80) + scorpion venom.
Format: cell-based
Method in brief: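 IC50 derived by four-parameter Hill fit of percent inhibition of depolarization, measured as peak F440-480/F565-625 ratio over baseline. Stable human Nav1.7 HEK293 cells, dye-loaded with CC2-DMPE and DiSBAC2(3)/VABSC-1 at room temperature, received compound 3 min ahead of veratridine (EC80) plus scorpion venom.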

human Nav1.7, sequence (Q15858 whole entry): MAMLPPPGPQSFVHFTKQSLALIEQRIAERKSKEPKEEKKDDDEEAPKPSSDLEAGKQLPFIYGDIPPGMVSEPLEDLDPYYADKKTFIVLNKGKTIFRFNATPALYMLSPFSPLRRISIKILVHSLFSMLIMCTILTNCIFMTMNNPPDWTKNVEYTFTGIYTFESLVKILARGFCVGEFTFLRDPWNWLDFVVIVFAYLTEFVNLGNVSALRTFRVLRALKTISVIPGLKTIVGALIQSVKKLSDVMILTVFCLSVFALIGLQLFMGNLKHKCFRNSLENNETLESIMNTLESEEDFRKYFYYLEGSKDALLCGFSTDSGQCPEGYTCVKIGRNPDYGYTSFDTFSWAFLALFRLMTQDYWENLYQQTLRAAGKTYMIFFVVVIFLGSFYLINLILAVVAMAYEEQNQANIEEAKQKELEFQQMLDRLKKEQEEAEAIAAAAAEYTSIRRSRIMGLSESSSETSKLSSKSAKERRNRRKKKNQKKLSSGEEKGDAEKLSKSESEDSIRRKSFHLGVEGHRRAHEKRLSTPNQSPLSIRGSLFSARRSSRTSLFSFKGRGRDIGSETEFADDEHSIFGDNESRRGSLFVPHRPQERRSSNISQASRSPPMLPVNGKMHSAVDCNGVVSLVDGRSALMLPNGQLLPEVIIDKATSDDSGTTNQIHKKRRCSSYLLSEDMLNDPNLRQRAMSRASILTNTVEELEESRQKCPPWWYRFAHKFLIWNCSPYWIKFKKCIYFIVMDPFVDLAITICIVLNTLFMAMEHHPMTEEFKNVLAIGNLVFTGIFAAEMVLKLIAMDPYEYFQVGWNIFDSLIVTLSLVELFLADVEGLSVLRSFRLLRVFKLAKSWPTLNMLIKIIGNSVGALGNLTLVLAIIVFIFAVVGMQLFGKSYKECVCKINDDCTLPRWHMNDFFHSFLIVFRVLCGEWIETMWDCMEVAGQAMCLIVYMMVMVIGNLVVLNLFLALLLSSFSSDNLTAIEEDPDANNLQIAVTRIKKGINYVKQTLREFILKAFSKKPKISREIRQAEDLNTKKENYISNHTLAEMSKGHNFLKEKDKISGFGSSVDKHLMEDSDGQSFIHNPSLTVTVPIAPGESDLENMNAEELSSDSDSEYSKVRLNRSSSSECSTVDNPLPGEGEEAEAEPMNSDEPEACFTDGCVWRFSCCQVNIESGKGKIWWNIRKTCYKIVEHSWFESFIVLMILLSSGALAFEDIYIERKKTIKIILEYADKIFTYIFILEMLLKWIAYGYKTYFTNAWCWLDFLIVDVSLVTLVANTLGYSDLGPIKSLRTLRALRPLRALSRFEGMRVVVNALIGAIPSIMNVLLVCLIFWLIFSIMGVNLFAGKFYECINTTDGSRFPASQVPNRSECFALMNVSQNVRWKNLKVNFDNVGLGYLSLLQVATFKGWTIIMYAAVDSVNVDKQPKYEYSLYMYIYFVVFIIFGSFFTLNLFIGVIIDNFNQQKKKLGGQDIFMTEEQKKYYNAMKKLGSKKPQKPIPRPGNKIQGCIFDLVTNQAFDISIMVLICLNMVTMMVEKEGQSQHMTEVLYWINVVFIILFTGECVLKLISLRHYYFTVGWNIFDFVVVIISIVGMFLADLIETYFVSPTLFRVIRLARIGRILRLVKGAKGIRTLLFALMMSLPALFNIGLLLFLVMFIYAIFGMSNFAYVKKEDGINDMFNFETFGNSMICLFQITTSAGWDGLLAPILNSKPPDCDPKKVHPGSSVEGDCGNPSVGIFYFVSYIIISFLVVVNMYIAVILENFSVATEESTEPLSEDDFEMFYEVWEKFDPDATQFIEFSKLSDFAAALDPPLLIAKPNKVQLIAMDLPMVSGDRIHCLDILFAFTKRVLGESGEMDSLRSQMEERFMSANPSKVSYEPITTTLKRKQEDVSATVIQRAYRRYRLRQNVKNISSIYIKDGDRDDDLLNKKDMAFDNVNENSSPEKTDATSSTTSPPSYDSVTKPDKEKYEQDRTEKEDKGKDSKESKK

| SMILES | IC50 [nM] |
| --- | --- |
| O=C(CN1CCN(c2cccc3c2cnn3-c2ccccc2F)C1=O)c1cccnc1 [Example 152, 1-[1-(2-fluorophenyl)-1H-indazol-4-yl]-3-[2-oxo-2-(pyridin-3-yl)ethyl]imidazolidin-2-one] | 2260 |
| O=C(CN1CCN(c2cccc3c2cnn3-c2ccccc2F)C1=O)c1ccc2c(c1)OCO2 [Example 153, 1-[2-(1,3-benzodioxol-5-yl)-2-oxoethyl]-3-[1-(2-fluorophenyl)-1H-indazol-4-yl]imidazolidin-2-one] | 1320 |
| O=C1N(c2cnccc2F)CCN1c1cccc2c1cnn2-c1ccccc1F [Example 154, 1-[1-(2-fluorophenyl)-1H-indazol-4-yl]-3-(4-fluoropyridin-3-yl)imidazolidin-2-one] | 2870 |
| CC(C)C[C@@H](O)CN1CCN(c2cccc3c2cnn3-c2ccccc2F)C1=O [Example 155, 1-[1-(2-fluorophenyl)-1H-indazol-4-yl]-3-[(2R)-2-hydroxy-4-methylpentyl]imidazolidin-2-one] | 1880 |
| CC(C)C[C@H](O)CN1CCN(c2cccc3c2cnn3-c2ccccc2F)C1=O [Example 156, 1-[1-(2-fluorophenyl)-1H-indazol-4-yl]-3-[(2S)-2-hydroxy-4-methylpentyl]imidazolidin-2-one] | 1350 |
| O=C(CC1CCOC1)CN1CCN(c2cccc3c2cnn3-c2ccccc2F)C1=O (centres unmarked) [Example 157, 1-[1-(2-fluorophenyl)-1H-indazol-4-yl]-3-[2-oxo-3-(tetrahydrofuran-3-yl)propyl]imidazolidin-2-one] | 3370 |
| O=C1N(c2cncs2)CCN1c1cccc2c1cnn2-c1ccccc1F [Example 158, 1-[1-(2-fluorophenyl)-1H-indazol-4-yl]-3-(1,3-thiazol-5-yl)imidazolidin-2-one] | 20000 |
| CC[C@@H](CO)N1CCN(c2cccc3c2cnn3-c2ccccc2F)C1=O [Example 159, 1-[1-(2-fluorophenyl)-1H-indazol-4-yl]-3-[(2S)-1-hydroxybutan-2-yl]imidazolidin-2-one] | 3590 |
| CC[C@@H](O)CN1CCN(c2cccc3c2cnn3-c2ccccc2F)C1=O [Example 160, 1-[1-(2-fluorophenyl)-1H-indazol-4-yl]-3-[(2R)-2-hydroxybutyl]imidazolidin-2-one] | 3510 |
| CC(C)(C)C(=O)CN1CCN(c2cccc3c2cnn3-c2ccccc2F)C1=O [Example 161, 1-(3,3-dimethyl-2-oxobutyl)-3-[1-(2-fluorophenyl)-1H-indazol-4-yl]imidazolidin-2-one] | 1400 |
| CC(C)C(=O)CN1CCN(c2cccc3c2cnn3-c2ccccc2F)C1=O [Example 162, 1-[1-(2-fluorophenyl)-1H-indazol-4-yl]-3-(3-methyl-2-oxobutyl)imidazolidin-2-one] | 729 |
| CC(C)C(O)CN1CCN(c2cccc3c2cnn3-c2ccccc2F)C1=O (centres unmarked) [Example 163, 1-[1-(2-fluorophenyl)-1H-indazol-4-yl]-3-(2-hydroxy-3-methylbutyl)imidazolidin-2-one] | 2160 |
| O=C(CN1CCN(c2cccc3c2cnn3-c2ccccc2F)C1=O)C1CCC1 [Example 164, 1-(2-cyclobutyl-2-oxoethyl)-3-[1-(2-fluorophenyl)-1H-indazol-4-yl]imidazolidin-2-one] | 635 |
| O=C1N(CC(O)C2CCC2)CCN1c1cccc2c1cnn2-c1ccccc1F (centres unmarked) [Example 165, 1-(2-cyclobutyl-2-hydroxyethyl)-3-[1-(2-fluorophenyl)-1H-indazol-4-yl]imidazolidin-2-one] | 681 |
| O=C(C1CCC1)C(O)N1CCN(c2cccc3c2cnn3-c2ccccc2F)C1=O (centres unmarked) [Example 166, 1-(2-cyclobutyl-1-hydroxy-2-oxoethyl)-3-[1-(2-fluorophenyl)-1H-indazol-4-yl]imidazolidin-2-one] | 435 |
| CC(C)C[C@@](C)(O)CN1CCN(c2cccc3c2cnn3-c2ccccc2F)C1=O [Example 167, 1-[1-(2-fluorophenyl)-1H-indazol-4-yl]-3-[(2R)-2-hydroxy-2,4-dimethylpentyl]imidazolidin-2-one] | 893 |
| CC(C)C[C@](C)(O)CN1CCN(c2cccc3c2cnn3-c2ccccc2F)C1=O [Example 168, 1-[1-(2-fluorophenyl)-1H-indazol-4-yl]-3-[(2S)-2-hydroxy-2,4-dimethylpentyl]imidazolidin-2-one] | 816 |
| O=C1N(CC(=O)N2CCC[C@H]2C(F)(F)F)CCN1c1cccc2c1cnn2-c1ccccc1F [Example 169, 1-[1-(2-fluorophenyl)-1H-indazol-4-yl]-3-{2-oxo-2-[(2S)-2-(trifluoromethyl)pyrrolidin-1-yl]ethyl}imidazolidin-2-one] | 1070 |
| COC[C@H]1CCCN1C(=O)CN1CCN(c2cccc3c2cnn3-c2ccccc2F)C1=O [Example 170, 1-[1-(2-fluorophenyl)-1H-indazol-4-yl]-3-{2-[(2R)-2-(methoxymethyl)pyrrolidin-1-yl]-2-oxoethyl}imidazolidin-2-one] | 795 |

| SMILES | IC50 [nM] |
| --- | --- |
| O=C1N(CC(=O)N2CCC[C@@H]2C(F)(F)F)CCN1c1cccc2c1cnn2-c1ccccc1F [Example 171, 1-[1-(2-fluorophenyl)-1H-indazol-4-yl]-3-{2-oxo-2-[(2R)-2-(trifluoromethyl)pyrrolidin-1-yl]ethyl}imidazolidin-2-one] | 285 |
| CC1(C)CCCN1C(=O)CN1CCN(c2cccc3c2cnn3-c2ccccc2F)C1=O [Example 172, 1-[2-(2,2-dimethylpyrrolidin-1-yl)-2-oxoethyl]-3-[1-(2-fluorophenyl)-1H-indazol-4-yl]imidazolidin-2-one] | 2600 |
| O=C(CN1CCN(c2cccc3c2cnn3-c2ccccc2F)C1=O)NCc1cccc(F)c1 [Example 173, N-(3-fluorobenzyl)-2-{3-[1-(2-fluorophenyl)-1H-indazol-4-yl]-2-oxoimidazolidin-1-yl}acetamide] | 800 |
| O=C(CN1CCN(c2cccc3c2cnn3-c2ccccc2F)C1=O)NCc1cc(F)ccc1F [Example 174, N-(2,5-difluorobenzyl)-2-{3-[1-(2-fluorophenyl)-1H-indazol-4-yl]-2-oxoimidazolidin-1-yl}acetamide] | 849 |
| Cc1ccccc1CNC(=O)CN1CCN(c2cccc3c2cnn3-c2ccccc2F)C1=O [Example 175, 2-{3-[1-(2-fluorophenyl)-1H-indazol-4-yl]-2-oxoimidazolidin-1-yl}-N-(2-methylbenzyl)acetamide] | 2650 |
| C[C@@H](NC(=O)CN1CCN(c2cccc3c2cnn3-c2ccccc2F)C1=O)c1ccccc1 [Example 176, 2-{3-[1-(2-fluorophenyl)-1H-indazol-4-yl]-2-oxoimidazolidin-1-yl}-N-[(1R)-1-phenylethyl]acetamide] | 983 |
| O=C(CN1CCN(c2cccc3c2cnn3-c2ccccc2F)C1=O)NCc1cc(F)cc(F)c1 [Example 177, N-(3,5-difluorobenzyl)-2-{3-[1-(2-fluorophenyl)-1H-indazol-4-yl]-2-oxoimidazolidin-1-yl}acetamide] | 965 |
| C[C@H](NC(=O)CN1CCN(c2cccc3c2cnn3-c2ccccc2F)C1=O)c1ccccc1 [Example 178, 2-{3-[1-(2-fluorophenyl)-1H-indazol-4-yl]-2-oxoimidazolidin-1-yl}-N-[(1S)-1-phenylethyl]acetamide] | 2000 |
| O=C1N(Cc2nc3ccccc3s2)CCN1c1cccc2c1cnn2-c1ccccc1F [Example 179, 1-(1,3-benzothiazol-2-ylmethyl)-3-[1-(2-fluorophenyl)-1H-indazol-4-yl]imidazolidin-2-one] | 15400 |
| CC(C)C(C)(O)CN1CCN(c2cccc3c2cnn3-c2ccccc2F)C1=O (centres unmarked) [Example 180, 1-[1-(2-fluorophenyl)-1H-indazol-4-yl]-3-(2-hydroxy-2,3-dimethylbutyl)imidazolidin-2-one] | 3230 |
| O=C1N(CC2CCCC2)CCN1c1cccc2c1cnn2-c1ccccc1F [Example 181, 1-(cyclopentylmethyl)-3-[1-(2-fluorophenyl)-1H-indazol-4-yl]imidazolidin-2-one] | 6270 |
| O=C1N(CC2CCCO2)CCN1c1cccc2c1cnn2-c1ccccc1F (centres unmarked) [Example 182, 1-[1-(2-fluorophenyl)-1H-indazol-4-yl]-3-(tetrahydrofuran-2-ylmethyl)imidazolidin-2-one] | 2620 |
| O=C(CN1CCN(c2cccc3c2cnn3-c2ccccc2F)C1=O)C1CC1 [Example 183, 1-(2-cyclopropyl-2-oxoethyl)-3-[1-(2-fluorophenyl)-1H-indazol-4-yl]imidazolidin-2-one] | 2930 |
| O=C1N(c2cccc3c2cnn3-c2ccccc2F)CCN1C1CCC1 [Example 184, 1-cyclobutyl-3-[1-(2-fluorophenyl)-1H-indazol-4-yl]imidazolidin-2-one] | 1060 |
| O=C1N(c2cccc3c2cnn3-c2ccccc2F)CCN1[C@H]1CO[C@@H](c2ccccc2F)C1 [Example 185, 1-[1-(2-fluorophenyl)-1H-indazol-4-yl]-3-[(3R,5R)-5-(2-fluorophenyl)tetrahydrofuran-3-yl]imidazolidin-2-one] | 965 |
| CC(C)CC(O)CN1CCCN(c2cccc3c2cnn3-c2ccccc2F)C1=O (centres unmarked) [Example 186, 1-[1-(2-fluorophenyl)-1H-indazol-4-yl]-3-(2-hydroxy-4-methylpentyl)tetrahydropyrimidin-2(1H)-one] | 1410 |
| C[C@H]1CCCN1C(=O)CN1CCCN(c2cccc3c2cnn3-c2ccccc2F)C1=O [Example 187, 1-[1-(2-fluorophenyl)-1H-indazol-4-yl]-3-{2-[(2S)-2-methylpyrrolidin-1-yl]-2-oxoethyl}tetrahydropyrimidin-2(1H)-one] | 1910 |
| CC(C)CC(=O)CN1CCCN(c2cccc3c2cnn3-c2ccccc2F)C1=O [Example 188, 1-[1-(2-fluorophenyl)-1H-indazol-4-yl]-3-(4-methyl-2-oxopentyl)tetrahydropyrimidin-2(1H)-one] | 1660 |
| O=C1N(CC2CC2(F)F)CCN1c1cccc2c1cnn2-c1ccccc1F (centres unmarked) [Example 189, 1-[(2,2-difluorocyclopropyl)methyl]-3-[1-(2-fluorophenyl)-1H-indazol-4-yl]imidazolidin-2-one] | 1020 |
